Results as given in ChEMBL document CHEMBL1777687, “Structure stability/activity relationships of sulfone stabilized N,N-dichloroamines” (Bioorg Med Chem Lett, 2011).
Values after ≈ are worked out from the molar mass of the structure shown.

Key:
[1] = Chemical stability of the compound assessed as half life in phosphate buffer at pH 7; type: physicochemical
Staphylococcus aureus = test: Bactericidal activity against Staphylococcus aureus ATCC 29213 after 1 hr by CLSI M26-A method; type: functional; settings: ATCC 29213, 1 h
Candida albicans = test: Fungicidal activity against Candida albicans ATCC 10231 after 1 hr by CLSI M26-A method; type: functional; settings: ATCC 10231, 1 h
[2] = Chemical stability of the compound assessed as half life in acetate buffer at pH 4; type: physicochemical
Escherichia coli = test: Bactericidal activity against Escherichia coli ATCC 25922 after 1 hr by CLSI M26-A method; type: functional; settings: ATCC 25922, 1 h
[3] = Chemical stability of the compound assessed as half life in 0.6% borate buffer at pH 7; type: physicochemical

| half-life [1] [days] | half-life [2] [days] | half-life [3] [days] | Structure (SMILES) | MBC (Staphylococcus aureus) [µg/mL] | MFC (Candida albicans) [µg/mL] | MBC (Escherichia coli) [µg/mL] |
| --- | --- | --- | --- | --- | --- | --- |
|  | > 160 | 70 | CC(C)(CCS(=O)(=O)CCC[N+](C)(C)C)N(Cl)Cl.[Cl-] | 2 | 32 | 8 |
| 56 | 80 |  | CC(C)(CCC[N+](C)(C)C)N(Cl)Cl.[Cl-] | 2 | 256 | 8 |
|  | 6 |  | CC(C)(CCS(=O)(=O)CC[N+](C)(C)C)N(Cl)Cl.[Cl-] | 2 | 32 | 8 |
| 74 | 127 |  | CC(C)(CCS(=O)(=O)CCCCCCCC[N+](C)(C)C)N(Cl)Cl.[Cl-] | 8 | 32 | 8 |
| > 210 | > 281 |  | CC(C)(CC[N+](C)(C)C)N(Cl)Cl.[Cl-] | 2 | 64 | 2 |

Second part, the compound before the results:

| Structure (SMILES) | half-life [1] [days] | half-life [2] [days] | half-life [3] [days] | MBC (Staphylococcus aureus) [µg/mL] | MFC (Candida albicans) [µg/mL] | MBC (Escherichia coli) [µg/mL] |
| --- | --- | --- | --- | --- | --- | --- |
| CC(C)(CCS(=O)(=O)CCCS(=O)(=O)O)N(Cl)Cl | 85 | > 112 |  | 2 (≈ 5.84 µM) | 1020 (≈ 2990 µM) | 2 (≈ 5.84 µM) |
| CC(C)(CCS(=O)(=O)CCS(=O)(=O)CCS(=O)(=O)O)N(Cl)Cl |  | > 73 | 14 | 4 (≈ 9.52 µM) | 32 (≈ 76.1 µM) | 2 (≈ 4.76 µM) |
| CC(C)(CS(=O)(=O)[O-])N(Cl)Cl.[Na+] | > 300 | > 730 |  | 2 | 32 | 2 |
| CC(C)(C[N+](C)(C)C)N(Cl)Cl.[Cl-] | > 396 | > 325 |  | 8 | 128 | 16 |
| CC(C)(CS(=O)(=O)CCS(=O)(=O)O)N(Cl)Cl | 1 | > 93 |  | 8 (≈ 25.5 µM) | 64 (≈ 204 µM) | 4 (≈ 12.7 µM) |
| CC(C)(CCS(=O)(=O)CCS(=O)(=O)O)N(Cl)Cl | > 342 | > 342 |  | 2 (≈ 6.09 µM) | 16 (≈ 48.7 µM) | 8 (≈ 24.4 µM) |
| CC(C)(CCS(=O)(=O)CCCCCCCCS(=O)(=O)O)N(Cl)Cl |  | 182 | 70 | 4 (≈ 9.7 µM) | 8 (≈ 19.4 µM) | 2 (≈ 4.85 µM) |
| CC(C)(CCCS(=O)(=O)CCS(=O)(=O)O)N(Cl)Cl |  | 45 | 45 | 2 (≈ 5.84 µM) | 128 (≈ 374 µM) | 8 (≈ 23.4 µM) |
